Reference: publication PMC12892976, “Alkylation-based optimization of antifungal FPPS inhibitors yields a potent, broad-spectrum lipophilic zoledronate derivative” (mBio, 2025)

Tests used:
[1] = tested on: Aspergillus terreus; assay: checkerboard drug interaction (FICI, MICc); assay type: cell-based;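 note: simplified diagonal checkerboard screen pairing antifungals with FPPS inhibitors, FICI derived by the Loewe additivity model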
Experimental: (§1) Drug interactions between antifungals and FPPS inhibitors were investigated using a simplified checkerboard diagonal screening method ([45]). […] FICIs were determined according to the Loewe additivity model ([17]).

[2] = tested on: Aspergillus lentulus; assay: checkerboard drug interaction (FICI, MICc); assay type: cell-based;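 note: simplified diagonal checkerboard screen pairing antifungals with FPPS inhibitors, with the interaction index calculated under the Loewe additivity model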
Experimental: as §1

[3] = tested on: Microsporum canis; assay: checkerboard drug interaction (FICI, MICc); assay type: cell-based;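 note: simplified diagonal checkerboard screen pairing antifungals with FPPS inhibitors, FICI calculated under the Loewe additivity model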
Experimental: as §1

[4] = tested on: Nannizzia nana; assay: checkerboard drug interaction (FICI, MICc); assay type: cell-based;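 note: simplified diagonal checkerboard screen pairing antifungals with FPPS inhibitors, FICI calculated under the Loewe additivity model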
Experimental: as §1

[5] = tested on: Trichophyton tonsurans; assay: checkerboard drug interaction (FICI, MICc); assay type: cell-based;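 note: simplified diagonal checkerboard screen combining antifungals with FPPS inhibitors, with FICI calculated under the Loewe additivity model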
Experimental: as §1

[6] = tested on: Trichophyton soudanense; assay: checkerboard drug interaction (FICI, MICc); assay type: cell-based;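 note: simplified diagonal checkerboard screen pairing antifungals with FPPS inhibitors, FICI computed under the Loewe additivity model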
Experimental: as §1

[7] = tested on: Fusarium solani; assay: MIC broth microdilution (CLSI); details: Fusarium solani 04-16-056-1862
Experimental: (§2) Antifungal susceptibility was determined by broth microdilution according to the CLSI guidelines described in M27-Ed4 ([16]).

[8] = tested on: Trichophyton tonsurans; assay: MIC broth microdilution (CLSI); details: Trichophyton tonsurans R-168
Experimental: as §2

[9] = tested on: Lomentospora prolificans; assay: checkerboard drug interaction (FICI, MICc);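 note: simplified diagonal checkerboard screen pairing antifungals with FPPS inhibitors, FICI calculated under the Loewe additivity model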
Experimental: as §1

[10] = tested on: Aspergillus frankstonensis; assay: checkerboard drug interaction (FICI, MICc);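 note: simplified diagonal checkerboard screen pairing antifungals with FPPS inhibitors, FICI calculated using the Loewe additivity model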
Experimental: as §1

[11] = tested on: Epidermophyton floccosum; assay: checkerboard drug interaction (FICI, MICc);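 note: simplified diagonal checkerboard screen pairing antifungals with FPPS inhibitors, FICI calculated under the Loewe additivity model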
Experimental: as §1

[12] = tested on: Nannizzia gypsea; assay: checkerboard drug interaction (FICI, MICc);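 note: simplified diagonal checkerboard screen pairing antifungals with FPPS inhibitors, FICI derived using the Loewe additivity model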
Experimental: as §1

Question: With `CCCCCCCCCCn1cc[n+](CC(O)(P(=O)(O)O)P(=O)(O)O)c1` [10-ZOL, Decyl-zoledronate] as the compound, how does the “bisphosphonate MICc” value ([1]; with 5FC) read?
Answer: 0.25

Question: And the “bisphosphonate MICc” value ([1]; with AMB)?
Answer: 0.5

Question: What about the “bisphosphonate MICc” value ([1]; with CAS) of the same compound?
Answer: 1

Question: And the “bisphosphonate MICc” value ([1]; with FLC)?
Answer: 0.25

Question: What about the “bisphosphonate MICc” value ([1]; with ITR) of the same compound?
Answer: 0.25

Question: What about the “bisphosphonate MICc” value ([1]; with KET) of the same compound?
Answer: 0.25

Question: And the “bisphosphonate MICc” value ([1]; with VOR)?
Answer: 0.25

Question: What about the FICI ([2]; 5FC:10-ZOL) of the same compound?
Answer: ≥4

Question: And the FICI ([2]; CAS:10-ZOL)?
Answer: 2

Question: What about the FICI ([2]; FLC:10-ZOL) of the same compound?
Answer: 1.02

Question: And the “bisphosphonate MICc” value ([2]; with 5FC)?
Answer: 1

Question: And the “bisphosphonate MICc” value ([2]; with AMB)?
Answer: 2

Question: And the “bisphosphonate MICc” value ([2]; with CAS)?
Answer: 2

Question: And the “bisphosphonate MICc” value ([2]; with FLC)?
Answer: 2

Question: What about the “bisphosphonate MICc” value ([2]; with ITR) of the same compound?
Answer: 1

Question: What about the “bisphosphonate MICc” value ([2]; with KET) of the same compound?
Answer: 1

Question: What about the “bisphosphonate MICc” value ([2]; with VOR) of the same compound?
Answer: 1

Question: And the FICI ([3]; 5FC:10-ZOL)?
Answer: 3

Question: And the FICI ([3]; CAS:10-ZOL)?
Answer: 2

Question: And the FICI ([3]; VOR:10-ZOL)?
Answer: 1.16

Question: And the “bisphosphonate MICc” value ([3]; with 5FC)?
Answer: 1

Question: And the “bisphosphonate MICc” value ([3]; with AMB)?
Answer: 0.25

Question: What about the “bisphosphonate MICc” value ([3]; with CAS) of the same compound?
Answer: 1

Question: What about the “bisphosphonate MICc” value ([3]; with FLC) of the same compound?
Answer: 0.25

Question: And the “bisphosphonate MICc” value ([3]; with ITR)?
Answer: 0.5

Question: And the “bisphosphonate MICc” value ([3]; with KET)?
Answer: 1

Question: What about the “bisphosphonate MICc” value ([3]; with VOR) of the same compound?
Answer: 0.125

Question: And the FICI ([4]; 5FC:10-ZOL)?
Answer: 2

Question: What about the FICI ([4]; AMB:10-ZOL) of the same compound?
Answer: 2.25

Question: And the FICI ([4]; CAS:10-ZOL)?
Answer: 2.17

Question: What about the FICI ([4]; FLC:10-ZOL) of the same compound?
Answer: 1.5

Question: And the FICI ([4]; ITR:10-ZOL)?
Answer: 2

Question: What about the FICI ([4]; VOR:10-ZOL) of the same compound?
Answer: 1.17

Question: What about the “bisphosphonate MICc” value ([4]; with 5FC) of the same compound?
Answer: 1

Question: What about the “bisphosphonate MICc” value ([4]; with AMB) of the same compound?
Answer: 0.25

Question: And the “bisphosphonate MICc” value ([4]; with CAS)?
Answer: 0.25

Question: What about the “bisphosphonate MICc” value ([4]; with FLC) of the same compound?
Answer: 0.5

Question: And the “bisphosphonate MICc” value ([4]; with ITR)?
Answer: 1

Question: And the “bisphosphonate MICc” value ([4]; with KET)?
Answer: 0.25

Question: What about the “bisphosphonate MICc” value ([4]; with VOR) of the same compound?
Answer: 0.125

Question: What about the FICI ([5]; 5FC:10-ZOL) of the same compound?
Answer: 2

Question: What about the FICI ([5]; AMB:10-ZOL) of the same compound?
Answer: 2.92

Question: And the FICI ([5]; CAS:10-ZOL)?
Answer: ≥4

Question: What about the FICI ([5]; FLC:10-ZOL) of the same compound?
Answer: 0.52

Question: And the “bisphosphonate MICc” value ([5]; with 5FC)?
Answer: 1

Question: What about the “bisphosphonate MICc” value ([5]; with AMB) of the same compound?
Answer: 1

Question: What about the “bisphosphonate MICc” value ([5]; with CAS) of the same compound?
Answer: 1

Question: And the “bisphosphonate MICc” value ([5]; with FLC)?
Answer: 0.5

Question: What about the “bisphosphonate MICc” value ([5]; with ITR) of the same compound?
Answer: 1

Question: What about the “bisphosphonate MICc” value ([5]; with KET) of the same compound?
Answer: 0.25

Question: What about the “bisphosphonate MICc” value ([5]; with VOR) of the same compound?
Answer: 0.5

Question: And the FICI ([6]; 5FC:10-ZOL)?
Answer: 2

Question: What about the FICI ([6]; FLC:10-ZOL) of the same compound?
Answer: 0.28

Question: And the FICI ([6]; VOR:10-ZOL)?
Answer: 0.61

Question: What about the “bisphosphonate MICc” value ([6]; with 5FC) of the same compound?
Answer: 2

Question: And the “bisphosphonate MICc” value ([6]; with AMB)?
Answer: 0.25

Question: What about the “bisphosphonate MICc” value ([6]; with CAS) of the same compound?
Answer: 0.5

Question: What about the “bisphosphonate MICc” value ([6]; with FLC) of the same compound?
Answer: 0.5

Question: And the “bisphosphonate MICc” value ([6]; with ITR)?
Answer: 0.125

Question: What about the “bisphosphonate MICc” value ([6]; with KET) of the same compound?
Answer: 1

Question: What about the “bisphosphonate MICc” value ([6]; with VOR) of the same compound?
Answer: 0.25

Question: What about the “MIC / MEC” value [7] of the same compound?
Answer: 4 µg/mL

Question: What about the “MIC / MEC” value [8] of the same compound?
Answer: 1 µg/mL

Question: And the FICI ([9]; CAS:10-ZOL)?
Answer: ≥4

Question: What about the FICI ([9]; ITR:10-ZOL) of the same compound?
Answer: 0.5

Question: And the “bisphosphonate MICc” value ([9]; with 5FC)?
Answer: 1

Question: What about the “bisphosphonate MICc” value ([9]; with AMB) of the same compound?
Answer: 2

Question: And the “bisphosphonate MICc” value ([9]; with CAS)?
Answer: 0.5

Question: And the “bisphosphonate MICc” value ([9]; with FLC)?
Answer: 1

Question: What about the “bisphosphonate MICc” value ([9]; with ITR) of the same compound?
Answer: 0.5

Question: What about the “bisphosphonate MICc” value ([9]; with KET) of the same compound?
Answer: 1

Question: What about the “bisphosphonate MICc” value ([9]; with VOR) of the same compound?
Answer: 1

Question: What about the FICI ([10]; 5FC:10-ZOL) of the same compound?
Answer: 3

Question: And the FICI ([10]; CAS:10-ZOL)?
Answer: 1.09

Question: What about the FICI ([10]; ITR:10-ZOL) of the same compound?
Answer: 1

Question: What about the FICI ([10]; VOR:10-ZOL) of the same compound?
Answer: ≥4

Question: What about the “bisphosphonate MICc” value ([10]; with 5FC) of the same compound?
Answer: 1

Question: What about the “bisphosphonate MICc” value ([10]; with AMB) of the same compound?
Answer: 2

Question: What about the “bisphosphonate MICc” value ([10]; with CAS) of the same compound?
Answer: 0.125

Question: What about the “bisphosphonate MICc” value ([10]; with FLC) of the same compound?
Answer: 0.5

Question: And the “bisphosphonate MICc” value ([10]; with ITR)?
Answer: 0.5

Question: And the “bisphosphonate MICc” value ([10]; with KET)?
Answer: 0.5

Question: And the “bisphosphonate MICc” value ([10]; with VOR)?
Answer: 2

Question: And the FICI ([11]; 5FC:10-ZOL)?
Answer: 1.5

Question: And the FICI ([11]; AMB:10-ZOL)?
Answer: 2

Question: And the “bisphosphonate MICc” value ([11]; with 5FC)?
Answer: 0.5

Question: And the “bisphosphonate MICc” value ([11]; with AMB)?
Answer: 0.5

Question: What about the “bisphosphonate MICc” value ([11]; with CAS) of the same compound?
Answer: 0.25

Question: And the “bisphosphonate MICc” value ([11]; with FLC)?
Answer: 0.25

Question: And the “bisphosphonate MICc” value ([11]; with ITR)?
Answer: 0.125

Question: And the “bisphosphonate MICc” value ([11]; with KET)?
Answer: 1

Question: And the “bisphosphonate MICc” value ([11]; with VOR)?
Answer: 0.25

Question: And the FICI ([12]; AMB:10-ZOL)?
Answer: 2

Question: And the FICI ([12]; CAS:10-ZOL)?
Answer: 2.25

Question: What about the FICI ([12]; ITR:10-ZOL) of the same compound?
Answer: 1.5

Question: And the FICI ([12]; VOR:10-ZOL)?
Answer: 1.5

Question: And the “bisphosphonate MICc” value ([12]; with 5FC)?
Answer: 0.5

Question: What about the “bisphosphonate MICc” value ([12]; with AMB) of the same compound?
Answer: 0.5

Question: And the “bisphosphonate MICc” value ([12]; with CAS)?
Answer: 1

Question: What about the “bisphosphonate MICc” value ([12]; with FLC) of the same compound?
Answer: 0.25

Question: What about the “bisphosphonate MICc” value ([12]; with ITR) of the same compound?
Answer: 0.25

Question: And the “bisphosphonate MICc” value ([12]; with KET)?
Answer: 0.25

Question: What about the “bisphosphonate MICc” value ([12]; with VOR) of the same compound?
Answer: 0.25
